Measurements as given in patent US11746098B2, “Proteasome activity enhancing compounds” (Proteostasis Therapeutics, Inc., priority 2018, dated 2023).

molecular target: USP14 (Homo sapiens, UniProt P54578); assay: USP14 Inhibition Assay; format: biochemical; settings: average value from a minimum of two experimental determinations, read-out: IC50 Category
Source text: The activity of the compound described herein to inhibit USP14 can be measured using previously described methodology [B. H. Lee et al. Nature 2010, 467 (9), 179, the contents of which are expressly incorporated by reference herein].
Example 6: USP14 Inhibition Assay

`Cc1cc(C(=O)CN2CCC(O)(CN(C)C)C2)c(C)n1-c1ccc(Cl)cc1` (stereo not shown) [Compound 60, 1-(1-(4-Chlorophenyl)-2,5-dimethyl-1H-pyrrol-3-yl)-2-(3-((dimethylamino)methyl)-3-hydroxypyrrolidin-1-yl)ethanone] and `Cc1cc(C(=O)CN2CC[C@H](O)C2)c(C)n1-c1ccc(Cl)cc1` [Compound 52, (S)-1-(1-(4-Chlorophenyl)-2,5-dimethyl-1H-pyrrol-3-yl)-2-(3-hydroxypyrrolidin-1-yl)ethanone] fall in the same range of IC50: 0.5 to 5 µM for the first, 0.5 to 5 µM for the second.

First: Cc1cc(C(=O)CC2CCCNC2)c(C)n1-c1ccc(Cl)cc1 (stereo not shown) [Compound 38, 1-(1-(4-Chlorophenyl)-2,5-dimethyl-1H-pyrrol-3-yl)-2-(piperidin-3-yl)ethanone]
Second: Cc1cc(C(=O)CC2CCCCN2)c(C)n1-c1ccc(Cl)cc1 (stereo not shown) [Compound 71, 1-(1-(4-Chlorophenyl)-2,5-dimethyl-1H-pyrrol-3-yl)-2-(piperidin-2-yl)ethanone]
The IC50 of the first is higher: > 5 µM for the first, 0.5 to 5 µM for the second.

`Cc1cc(C(=O)CN2CCC(O)CC2)c(C)n1-c1ccc(S(C)(=O)=O)cc1` [Compound 13, 1-(2,5-Dimethyl-1-(4-(methylsulfonyl)phenyl)-1H-pyrrol-3-yl)-2-(4-hydroxypiperidin-1-yl)ethanone] and `Cc1cc(C(=O)CN2CCC(O)CC2)c(C)n1-c1ccc(C(=O)O)cc1` [Compound 113, 4-(3-(2-(4-Hydroxypiperidin-1-yl)acetyl)-2,5-dimethyl-1H-pyrrol-1-yl)benzoic acid] cannot be ordered by IC50: > 5 µM for the first, > 5 µM for the second.

First: Cc1cc(C(=O)CNCCO)c(C)n1-c1ccc(Cl)cc1 [Compound 101, 1-(1-(4-Chlorophenyl)-2,5-dimethyl-1H-pyrrol-3-yl)-2-((2-hydroxyethyl)amino)ethan-one]
Second: Cc1cc(C(=O)CNC2CC2)c(C)n1-c1ccc(Cl)cc1 [Compound 48, 1-(1-(4-Chlorophenyl)-2,5-dimethyl-1H-pyrrol-3-yl)-2-(cyclopropylamino)ethanone]
The IC50 of the first is higher: > 5 µM for the first, 0.5 to 5 µM for the second. The second is the more potent here.

First: Cc1cc(C(=O)CN2CCCC2)c(C)n1-c1ccc(O)cc1 [Compound 19, 1-(1-(4-Hydroxyphenyl)-2,5-dimethyl-1H-pyrrol-3-yl)-2-(pyrrolidin-1-yl)ethanone]
Second: Cc1cc(C(=O)CN2CCCCC2)c(C)n1-c1ccc(Br)c(Cl)c1 [Compound 57, 1-(1-(4-Bromo-3-chloropheny1)-2,5-dimethyl-1H-pyrrol-3-yl)-2-(piperidin-1-yl)ethanone]
The IC50 of the first is higher: > 5 µM for the first, 0.5 to 5 µM for the second. The second is the more potent here.

First: Cc1cc(C(=O)CN2CCC(C(F)(F)F)CC2)c(C)n1-c1ccc(Cl)cc1 [Compound 53, 1-(1-(4-Chlorophenyl)-2,5-dimethyl-1H-pyrrol-3-yl)-2-(4-(trifluoromethyl)piperidin-1-yl)ethanone]
Second: Cc1cc(C(=O)CN2CCC(C(=O)O)CC2)c(C)n1-c1ccc(Cl)cc1 [Compound 25, 1-(2-(1-(4-Chlorophenyl)-2,5-dimethyl-1H-pyrrol-3-yl)-2-oxoethyl)piperidine-4-carboxylic acid]
The IC50 of the first is lower: 0.5 to 5 µM for the first, > 5 µM for the second. The first is the more potent here.

`CC#Cc1ccc(-n2c(C)cc(C(=O)CN3CCC(O)CC3)c2C)cc1` [Compound 140, 1-(2,5-Dimethyl-1-(4-(prop-1-yn-1-yl)phenyl)-1H-pyrrol-3-yl)-2-(4-hydroxypiperidin-1-yl)ethanone] and `Cc1cc(C(=O)CN2CCC(O)CC2)c(C)n1-c1ccc(OC(F)(F)F)cc1` [Compound 62, 1-(2,5-dimethyl-1-(4-(trifluoromethoxy)phenyl)-1H-pyrrol-3-yl)-2-(4-hydroxypiperidin-1-yl)ethanone] fall in the same range of IC50: 0.5 to 5 µM for the first, 0.5 to 5 µM for the second.

`Cc1cc(C(=O)CN2CCCCC2)c(C)n1[C@H]1CC[C@@H](C#N)CC1` [Compound 105, cis-(2,5-Dimethyl-3-(2-(piperidin-1-yl)acetyl)-1H-pyrrol-1-yl)cyclohexanecarbonitrile] and `Cc1cc(C(=O)CN2CCCCC2)c(C)n1[C@H]1CC[C@H](C(N)=O)CC1` [Compound 122, trans-4-(2,5-Dimethyl-3-(2-(piperidin-1-yl)acetyl)-1H-pyrrol-1-yl)cyclohexane-1-carboxamide] cannot be ordered by IC50: > 5 µM for the first, > 5 µM for the second.

Compared with `Cc1cc(C(=O)CN2CCCCC2)c(C)n1-c1ccc(F)c(F)c1` [Compound 69, 1-(1-(3,4-Difluorophenyl)-2,5-dimethyl-1H-pyrrol-3-yl)-2-(piperidin-1-yl)ethanone], `Cc1cc(C(=O)CN2CCCCC2)c(C)n1-c1cc(Cl)cc(Cl)c1` [Compound 17, 1-(1-(3,5-Dichlorophenyl)-2,5-dimethyl-1H-pyrrol-3-yl)-2-(piperidin-1-yl)ethanone] is higher in IC50: 0.5 to 5 µM for the first, > 5 µM for the second.

Compared with `Cc1cc(C(=O)CN2CCC(OCC(=O)NC(C)(C)C)CC2)c(C)n1-c1ccc(Cl)cc1` [Compound 84, N-(tert-Butyl)-2-((1-(2-(1-(4-chlorophenyl)-2,5-dimethyl-1H-pyrrol-3-yl)-2-oxoethyl)piperidin-4-yl)oxy)acetamide], `Cc1cc(C(=O)CN2CCCC2CCO)c(C)n1-c1ccc(Cl)cc1` (stereo not shown) [Compound 50, 1-(1-(4-Chlorophenyl)-2,5-dimethyl-1H-pyrrol-3-yl)-2-(2-(2-hydroxyethyl)pyrrolidin-1-yl)ethanone] is higher in IC50: < 0.5 µM for the first, 0.5 to 5 µM for the second.

`Cc1cc(C(=O)CN2CCC(O)CC2)c(C)n1-c1cc(Cl)cc(Cl)c1` [Compound 18, 1-(1-(3,5-Dichlorophenyl)-2,5-dimethyl-1H-pyrrol-3-yl)-2-(4-hydroxypiperidin-1-yl)ethanone] and `Cc1cc(C(=O)CN2CCCC2)c(C)n1-c1cc(Cl)cc(Cl)c1` [Compound 16, 1-(1-(3,5-Dichlorophenyl)-2,5-dimethyl-1H-pyrrol-3-yl)-2-(pyrrolidin-1-yl)ethanone] cannot be ordered by IC50: > 5 µM for the first, > 5 µM for the second.

First: COc1cc(NS(=O)(=O)c2ccc(-n3c(C)cc(C(=O)CN4CCC(O)CC4)c3C)cc2)nc(OC)n1 [Compound 2, N-(2,6-Dimethoxypyrimidin-4-yl)-4-(3-(2-(4-hydroxypiperdin-1-yl)acetyl)-2,5-dimethyl-1H-pyrrol-1-yl)benzenesulfonamide]
Second: Cc1cc(C(=O)CN2CCC(O)CC2)c(C)n1-c1ccc(Br)c(Cl)c1 [Compound 59, 1-(1-(4-Bromo-3-chlorophenyl)-2,5-dimethyl-1H-pyrrol-3-yl)-2-(4-hydroxypiperidin-1-yl)ethanone]
The IC50 of the first is higher: > 5 µM for the first, 0.5 to 5 µM for the second. The second is the more potent here.

Compared with `Cc1cc(C(=O)CN2CCCCC2)c(C)n1-c1ccc(C(=O)OCc2ccccc2)cc1` [Compound 110, trans-Benzyl 4-(2,5-dimethyl-3-(2-(piperidin-1-yl)acetyl)-1H-pyrrol-1-yl)benzoate], `Cc1c(C(=O)CN2CCCCC2)ccn1-c1ccc(Cl)cc1` [Compound 91, 1-(1-(4-Chlorophenyl)-2-methyl-1H-pyrrol-3-yl)-2-(piperidin-1-yl)ethanone] is lower in IC50: > 5 µM for the first, < 0.5 µM for the second. The second is the more potent here.

Compared with `Cc1cc(C(=O)CC2CCCCN2C)c(C)n1-c1ccc(Cl)cc1` (stereo not shown) [Compound 72, 1-(1-(4-Chlorophenyl)-2,5-dimethyl-1H-pyrrol-3-yl)-2-(1-methylpiperidin-2-yl)ethanone], `Cc1cc(C(=O)CN2CCC(CN)CC2)c(C)n1-c1ccc(C#N)cc1` [Compound 157, 4-(3-(2-(4-(Aminomethyl)piperidin-1-yl)acetyl)-2,5-dimethyl-1H-pyrrol-1-yl)benzonitrile] is lower in IC50: 0.5 to 5 µM for the first, < 0.5 µM for the second.

First: Cc1cc(C(=O)CN2CCCCC2)c(C)n1C1CCCCC1 [Compound 65, 1-(1-Cyclohexyl-2,5-dimethyl-1H-pyrrol-3-yl)-2-(piperidin-1-yl)ethanone]
Second: Cc1cc(C(=O)CN2CCCCC2)c(C)n1C1CCC1 [Compound 35, 1-(1-Cyclobutyl-2,5-dimethyl-1H-pyrrol-3-yl)-2-(piperidin-1-yl)ethanone]
The IC50 of the first is lower: 0.5 to 5 µM for the first, > 5 µM for the second. The first is the more potent here.

Compared with `Cc1cc(C(=O)CN(C)CCCCC(N)C(=O)O)c(C)n1-c1ccc(C#N)cc1` (stereo not shown) [Compound 138, 2-Amino-6-((2-(1-(4-cyanophenyl)-2,5-dimethyl-1H-pyrrol-3-yl)-2-oxoethyl)(methyl)amino)hexa-noic acid], `Cc1cc(C(=O)CNCC2COC(C)(C)O2)c(C)n1-c1ccc(C#N)cc1` (stereo not shown) [Compound 102, 4-(3-(2-(((2,2-Dimethyl-1,3-dioxolan-4-yl)methyl)amino)acetyl)-2,5-dimethyl-1H-pyrrol-1-yl)benzonitrile] is higher in IC50: 0.5 to 5 µM for the first, > 5 µM for the second. The first is the more potent here.

Compared with `Cc1cc(C(=O)CN2CCCCC2)c(C)n1C1CCC(Cl)(Cl)CC1` [Compound 97, 1-(1-(4,4-Dichlorocyclohexyl)-2,5-dimethyl-1H-pyrrol-3-yl)-2-(piperidin-1-yl)ethanone], `Cc1cc(C(=O)CN2CCC(O)CC2)c(C)n1C1CCC1` [Compound 36, 1-(1-Cyclobutyl-2,5-dimethyl-1H-pyrrol-3-yl)-2-(4-hydroxypiperidin-1-yl)ethanone] is higher in IC50: < 0.5 µM for the first, > 5 µM for the second.

Going from `CCc1ccc(C(=O)CN2CCCCC2)n1-c1ccc(C#N)cc1` [Compound 112, 4-(2-Ethyl-5-(2-(piperidin-1-yl)acetyl)-1H-pyrrol-1-yl)benzonitrile] to `Cc1c(C(=O)CN2CCCCC2)cn(C)c1-c1ccc(Cl)cc1` [Compound 93, 1-(5-(4-Chlorophenyl)-1,4-dimethyl-1H-pyrrol-3-yl)-2-(piperidin-1-yl)ethanone], the IC50 falls from > 5 µM to < 0.5 µM. The second is the more potent here.

`Cc1cc(Cl)cc(C)c1-n1cccc1C(=O)CN1CCCCC1` [Compound 27, 1-(1-(4-Chloro-2,6-dimethylphenyl)-1H-pyrrol-2-yl)-2-(piperidin-1-yl)ethanone] and `Cc1cc(Cl)cc(C)c1-n1cccc1C(=O)CN1CCCC1` [Compound 28, 1-(1-(4-Chloro-2,6-dimethylphenyl)-1H-pyrrol-2-yl)-2-(pyrrolidin-1-yl)ethanone] cannot be ordered by IC50: > 5 µM for the first, > 5 µM for the second.

First: Cc1cc(Cl)cc(C)c1-n1ccc(C(=O)CN2CCC(O)CC2)c1 [Compound 24, 1-(1-(4-Chloro-2,6-dimethylphenyl)-1H-pyrrol-3-yl)-2-(4-hydroxypiperidin-1-yl)ethanone]
Second: Cc1c(C(=O)CN2CCC(O)CC2)cn(C)c1-c1ccc(Cl)cc1 [Compound 94, 1-(5-(4-Chlorophenyl)-1,4-dimethyl-1H-pyrrol-3-yl)-2-(4-hydroxypiperidin-1-yl)ethanone]
The IC50 of the first is higher: > 5 µM for the first, < 0.5 µM for the second.
